According to patent publication US10647752B2, “Polypeptides capable of inhibiting the binding between leptin and Neuropilin-1” (INSERM (Institut National de la Sante et de la Recherche …, priority 2015, dated 2020):
“Also recorded” adds a separate entry of the source.

What was measured:
NRP-1 = target: T1, NRP-1 (Homo sapiens, UniProt O14786); test: Bio-layer interferometry (BLI) protein:protein interaction with NRP-1; format: binding; settings: for competition between leptin and VEGF for binding to NRP-1: BLI competition experiment; for interaction (binding) with NRP-1 by BLI: recombinant proteins, extracellular domain of recombinant NRP-1 for the peptide
T1 construct: the extracellular domain of the recombinant protein NRP-1 from RnD systems; purchased RnD systems
Protocol: Bio-Layer Interferometry Bio-layer interferometry (BLI) is a label-free technique that is sensitive to an increase of mass bound to the biosensor enabling protein-protein interaction characterization. Ligands preparation: proteins were incubated in a PBS buffer with a 1:3 ratio molar ratio of biotin (biotin-PEG4-NHS from Pierce EZ kit, prepared following the manufacturer's instructions). Free biotin was removed using a desalting column (Pierce). The biotinylated protein (called ligand) was immobilized onto streptavidin biosensor tips and dipped into wells containing the buffer with the analyte of interest (association) or without (dissociation). Experimental conditions were as follow: total volume in each well: 200 μl; shake speed: 1,000 rpm. For simple protein:protein interactions an association phase was followed by a dissociation phase. For competition experiments, the association phase was followed by another association phase with a second analyte instead of a dissociation phase. Sensorgrams were background corrected, smoothed with the Savitzky-Golay algorithm and analyzed using OctetRED instrument software (ForteBio Data Analysis version 7.1). Experimental sensorgrams were first fit to a 1:1 model. The 1:1 model was accepted if the Chi^2 test was below 3 and the R^2 was above 0.9. When the 1:1 model was rejected, the model with the lowest Chi^2 and the highest R^2 was then selected.

NRP-1/OBR complex = NRP-1/OBR complex detection in MDA-MB231 breast cancer cell line by proximity ligation assay (PLA); format: cell-based; settings: MDA-MB231 cultivated in normal human serum, Avastin 40 μg/ml for 48 h, compared to untreated cells
Protocol: NRP-1 and OBR Complex Detection in MBA-MB231 Breast Cancer Cell Line by Immunocytochemistry Using a PLA Technology
The detection of NRP-1/OBR complex in human MDA-MB231 breast cancer cell line was assessed by proximity ligation assay (PLA) or duolink technology (www.olink.com). The detection of the NRP-1/OBR complex was assessed on MDA-MB231 cell line cultivated in normal human serum (human male AB plasma, USA origin, MDL number MFCD00165829 H4522 Sigma) and treated or not with Avastin 40 μg/ml final concentration for 48 h. The goal by using human serum was to mimic a physiologic condition during therapy with Avastin. The immunostained samples were analysed by the acquisition of the Z stacks through confocal microscopy on Zeiss LSM 700, Inverted confocal microscope. The acquired images were analyzed using Image J software for the quantification of NRP-1/OBR complex expressed by cells.

[1] = test system: MDA-MB231 breast cancer cell line; test: In vitro cell migration of MDA-MB231 breast cancer cell line; format: cell-based, human
[2] = test system: Serine/Threonine casein kinase2 (CK2); test: CK2 inhibition in breast cancer cell lines: NRP-1 and JAK2 phosphorylation and NRP-1/OBR complex formation; format: cell-based; settings: MDA-MB231 / T47D breast cancer cell lines

| Compound | NRP-1 and JAK2 phosphorylation [2] | formation of the NRP-1/OBR complex [2] | other results |
| --- | --- | --- | --- |
| VEGF |  |  | competition between leptin and VEGF for binding to NRP-1 (NRP-1): does not prevent leptin binding to NRP-1 |
| ENLRDLLHVLAFSKSCHLPWASGLETL (listed as Homo sapiens) [SEQ ID:3] |  |  | interaction (binding) with NRP-1 by BLI (NRP-1): validated by BLI |
| Avastin: Anti-VEGF (bevacizumab) antibody |  |  | number of NRP-1/OBR complex (NRP-1/OBR complex): increase of NRP-1/OBR complex detection; also recorded: high number of NRP-1/OBR complex; cell migration [1]: induces in vitro cell migration; also recorded: increased MDA-MB231 cell migration |
| OC[C@H]1O[C@@H](n2cnc3cc(Cl)c(Cl)cc32)[C@H](O)[C@@H]1O [DRB] | prevented | prevented |  |
| leptin: cytokine-like hormone mainly produced by adipocytes; recombinant protein |  |  | competition between leptin and VEGF for binding to NRP-1 (NRP-1): do not compete with VEGF binding; interaction (binding) with NRP-1 by BLI (NRP-1): direct interaction |
| O=C(O)c1ccc2c(c1)nc(Nc1cccc(Cl)c1)c1ccncc12 [CX4945] | prevented | prevented |  |
| Brc1c(Br)c(Br)c2n[nH]nc2c1Br [TBB] | prevented | prevented |  |
